The source of these data is US8349897B2, “Biphenyloxyacetic acid derivatives for the treatment of respiratory disease” (Astrazeneca AB, priority 2005, dated 2013).

The test deals with T1, rhCRTh2 (Homo sapiens, UniProt Q9Y5Y4).
T1 construct: expressed in transfected cells; host or cells: HEK cells (membrane preparation)
T1 sequence (Q9Y5Y4 1-395): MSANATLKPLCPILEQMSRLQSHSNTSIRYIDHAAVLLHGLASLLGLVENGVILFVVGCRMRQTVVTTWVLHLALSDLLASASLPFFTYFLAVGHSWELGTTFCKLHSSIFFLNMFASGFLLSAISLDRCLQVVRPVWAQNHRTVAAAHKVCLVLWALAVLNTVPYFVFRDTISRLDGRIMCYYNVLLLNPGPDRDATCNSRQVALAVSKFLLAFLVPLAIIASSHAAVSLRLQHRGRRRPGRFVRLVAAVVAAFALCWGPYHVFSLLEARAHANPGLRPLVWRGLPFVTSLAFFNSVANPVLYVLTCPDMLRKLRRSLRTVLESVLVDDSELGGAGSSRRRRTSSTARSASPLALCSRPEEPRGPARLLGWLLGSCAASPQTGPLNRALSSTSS
As to the kind of experiment: Ligand binding assay ([3H]PGD2 SPA, HEK cell membranes). To be noted: [3H]PGD2 displacement, membranes of HEK cells expressing rhCRTh2/Gα16, SPA beads, 2 hours room temperature; read-out: pIC50 value (converted). On the procedure:
[^3H]PGD2 was purchased from Perkin Elmer Life Sciences with a specific activity of 100-210 Ci/mmol. All other chemicals were of analytical grade.
HEK cells expressing rhCRTh2/Gα16 were routinely maintained in DMEM containing 10% Foetal Bovine Serum (HyClone), 1 mg/ml geneticin, 2 mM L-glutamine and 1% non-essential amino acids. For the preparation of membranes, the adherent transfected HEKcells were grown to confluence in two layer tissue culture factories (Fisher, catalogue number TKT-170-070E). Maximal levels of receptor expression were induced by addition of […] sodium butyrate for the last 18 hours of culture. The adherent cells were washed once with phosphate buffered saline (PBS, 50 ml per cell factory) and detached by the addition of 50 ml per cell factory of ice-cold membrane homogenisation buffer [20 mM HEPES (pH 7.4), 0.1 mM dithiothreitol, 1 mM EDTA, 0.1 mM phenyl methyl sulphonyl fluoride and 100 μg/ml bacitracin]. […] The final pellet was re-suspended in 4 ml of membrane homogenisation buffer per cell factory used and the protein content determined. […]
All assays were performed in Corning clear bottomed, white 96-well NBS plates (Fisher). […] (The optimum coating concentrations were determined for each batch of membranes) The beads were pelleted by centrifugation (800×g for 7 minutes at 4° C.), washed once with assay buffer (50 mM HEPES pH 7.4 containing 5 mM magnesium chloride) and finally re-suspended in assay buffer at a bead concentration of 10 mg/ml.
Each assay contained 20 μl of 6.25 nM [^3H]PGD2, 20 μl membrane saturated SPA beads both in assay buffer and 10 μl of compound solution or 13,14-dihydro-15-keto prostaglandin D2 (DK-PGD2, for determination of non-specific binding, Cayman chemical company). […] The assay plate was incubated at room temperature for 2 hours and counted on a Wallac Microbeta liquid scintillation counter (1 minute per well).
Regarding `C[C@H](Oc1ccc(F)cc1-c1ccc(S(=O)(=O)c2ccccc2)cc1Cl)C(=O)O` [Example 15, (2S)-2-{[2′-chloro-5-fluoro-4′-(phenylsulfonyl)biphenyl-2-yl]oxy}propanoic acid], the IC50 is 1.58 nM.
Then `O=C(O)COc1ccc(F)cc1-c1ccc(S(=O)(=O)c2ccccc2)c(C(F)(F)F)c1` [Example 7, {[5-fluoro-4′-(phenylsulfonyl)-3′-(trifluoromethyl)biphenyl-2-yl]oxy}acetic acid], with 3.16 nM; and `C[C@H](Oc1ccc(Cl)cc1-c1ccc(S(=O)(=O)c2ccc(F)cc2)cc1)C(=O)O` [Example 8, (2S)-2-({5-chloro-4′-[(4-fluorophenyl)sulfonyl]biphenyl-2-yl}oxy)propanoic acid], with 1.58 nM.
